Laboratory results: PubChem BioAssay (NCI)
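Results reflect a 48-hour exposure of cells in 96-well plates to compound at five concentrations. Abbreviation: GI50, concentration required for 50% inhibition of growth. Definition used: TGI = concentration required for complete inhibition of growth.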

What was measured:
Assay in all cases: NCI-60 cell line screen, 48 h
RPMI-8226 leukemia = system: RPMI-8226 leukemia
U251 CNS = system: U251 CNS
SF-295 CNS = system: SF-295 CNS
T-47D breast = system: T-47D breast
SK-MEL-5 melanoma = system: SK-MEL-5 melanoma
EKVX NSCLC = system: EKVX NSCLC
OVCAR-4 ovarian = system: OVCAR-4 ovarian
UACC-62 melanoma = system: UACC-62 melanoma
HOP-92 NSCLC = system: HOP-92 NSCLC
OVCAR-8 ovarian = system: OVCAR-8 ovarian
NCI-H226 lung = system: NCI-H226 lung
HL-60(TB) leukemia = system: HL-60(TB) leukemia
HOP-62 NSCLC = system: HOP-62 NSCLC
RXF 393 renal = system: RXF 393 renal
MDA-MB-435 = system: MDA-MB-435
HCC-2998 colon = system: HCC-2998 colon
MDA-MB-231 breast = system: MDA-MB-231 breast
SN12C renal = system: SN12C renal
NCI/ADR-RES ovarian = system: NCI/ADR-RES ovarian
ACHN renal = system: ACHN renal
SK-MEL-28 melanoma = system: SK-MEL-28 melanoma
SK-MEL-2 melanoma = system: SK-MEL-2 melanoma
COLO 205 colon = system: COLO 205 colon
NCI-H460 lung = system: NCI-H460 lung
MOLT-4 leukemia = system: MOLT-4 leukemia
OVCAR-5 ovarian = system: OVCAR-5 ovarian
MCF7 breast = system: MCF7 breast
TK-10 renal = system: TK-10 renal
SNB-19 CNS = system: SNB-19 CNS
NCI-H23 lung = system: NCI-H23 lung
HT29 colon = system: HT29 colon
M14 melanoma = system: M14 melanoma
HCT-15 colon = system: HCT-15 colon
SNB-75 CNS = system: SNB-75 CNS
MALME-3M melanoma = system: MALME-3M melanoma
SK-OV-3 ovarian = system: SK-OV-3 ovarian
DU-145 prostate = system: DU-145 prostate
CCRF-CEM leukemia = system: CCRF-CEM leukemia
SW-620 colon = system: SW-620 colon
IGROV1 ovarian = system: IGROV1 ovarian
CAKI-1 renal = system: CAKI-1 renal
A549 NSCLC = system: A549 NSCLC
PC-3 prostate = system: PC-3 prostate
LOX IMVI melanoma = system: LOX IMVI melanoma
BT-549 breast = system: BT-549 breast
SF-268 CNS = system: SF-268 CNS
UO-31 renal = system: UO-31 renal
A498 renal = system: A498 renal
786-0 renal = system: 786-0 renal
HCT-116 colon = system: HCT-116 colon
SF-539 CNS = system: SF-539 CNS
NCI-H522 lung = system: NCI-H522 lung
UACC-257 melanoma = system: UACC-257 melanoma
KM12 colon = system: KM12 colon
OVCAR-3 ovarian = system: OVCAR-3 ovarian
SR leukemia = system: SR leukemia
K-562 leukemia = system: K-562 leukemia

## CCOC(=O)c1ccc(NC2Oc3cc4c(cc3C(c3cc(OC)c(OC)c(OC)c3)C2C)OCO4)cc1 (centres undefined)
RPMI-8226 leukemia
  TGI: 4.92 µM
U251 CNS
  TGI: > 42.5 µM
SF-295 CNS
  TGI: 2.9 µM
T-47D breast
  TGI: > 100 µM
SK-MEL-5 melanoma
  TGI: 1.49 µM
EKVX NSCLC
  TGI: > 100 µM
OVCAR-4 ovarian
  TGI: > 64.7 µM
UACC-62 melanoma
  TGI: 64.5 µM
HOP-92 NSCLC
  TGI: 32.2 µM
OVCAR-8 ovarian
  TGI: 33 µM
NCI-H226 lung
  TGI: 16 µM
HL-60(TB) leukemia
  TGI: 0.564 µM
HOP-62 NSCLC
  TGI: > 71.4 µM
RXF 393 renal
  TGI: 93.9 µM
MDA-MB-435
  TGI: 0.448 µM
HCC-2998 colon
  TGI: 6.32 µM
MDA-MB-231 breast
  TGI: 2.24 µM
SN12C renal
  TGI: > 71.5 µM
NCI/ADR-RES ovarian
  TGI: 8.27 µM
ACHN renal
  TGI: > 63.4 µM
SK-MEL-28 melanoma
  TGI: > 100 µM
SK-MEL-2 melanoma
  TGI: > 63.4 µM
COLO 205 colon
  TGI: 0.645 µM
NCI-H460 lung
  TGI: > 100 µM
MOLT-4 leukemia
  TGI: 11.5 µM
OVCAR-5 ovarian
  TGI: > 100 µM
MCF7 breast
  TGI: > 48.5 µM
TK-10 renal
  TGI: 99.5 µM
SNB-19 CNS
  TGI: > 100 µM
NCI-H23 lung
  TGI: > 67.3 µM
HT29 colon
  TGI: 12.9 µM
M14 melanoma
  TGI: > 50.9 µM
HCT-15 colon
  TGI: > 54.6 µM
SNB-75 CNS
  TGI: 0.704 µM
MALME-3M melanoma
  TGI: 0.677 µM
SK-OV-3 ovarian
  TGI: > 21.1 µM
DU-145 prostate
  TGI: > 100 µM
CCRF-CEM leukemia
  TGI: > 20.3 µM
SW-620 colon
  TGI: > 100 µM
IGROV1 ovarian
  TGI: > 51 µM
CAKI-1 renal
  TGI: 0.786 µM
A549 NSCLC
  TGI: > 73.2 µM
PC-3 prostate
  TGI: > 100 µM
LOX IMVI melanoma
  TGI: 32.9 µM
BT-549 breast
  TGI: 6.76 µM
SF-268 CNS
  TGI: > 40.8 µM
UO-31 renal
  TGI: 4.65 µM
A498 renal
  TGI: > 100 µM
786-0 renal
  TGI: 46.6 µM
HCT-116 colon
  TGI: > 51.7 µM
SF-539 CNS
  TGI: 0.878 µM
NCI-H522 lung
  TGI: 10.6 µM
UACC-257 melanoma
  TGI: > 100 µM
KM12 colon
  TGI: 3.69 µM

## COc1cc(-c2c3c(cn2S(=O)(=O)c2ccccc2)-c2nc(N)sc2CC3)cc(OC)c1OC
RPMI-8226 leukemia
  GI50: 0.79 µM
  TGI: 56 µM
U251 CNS
  GI50: 0.591 µM
  TGI: 10.5 µM
SF-295 CNS
  GI50: 0.372 µM
  TGI: 3.52 µM
T-47D breast
  GI50: 0.433 µM
  TGI: 20.6 µM
SK-MEL-5 melanoma
  GI50: 0.579 µM
  TGI: 18.8 µM
OVCAR-4 ovarian
  GI50: 2.04 µM
  TGI: 32.3 µM
UACC-62 melanoma
  GI50: 0.729 µM
  TGI: > 100 µM
HOP-92 NSCLC
  GI50: 0.407 µM
  TGI: 8.34 µM
OVCAR-8 ovarian
  GI50: 2.4 µM
  TGI: 29.2 µM
NCI-H226 lung
  GI50: 11.2 µM
  TGI: 47.4 µM
OVCAR-3 ovarian
  GI50: 0.414 µM
  TGI: 6.9 µM
HL-60(TB) leukemia
  GI50: 0.385 µM
  TGI: 4.32 µM
HOP-62 NSCLC
  GI50: 2.05 µM
  TGI: 63.2 µM
RXF 393 renal
  GI50: 1.04 µM
  TGI: 14.5 µM
MDA-MB-435
  GI50: 0.238 µM
  TGI: 0.791 µM
HCC-2998 colon
  GI50: 4.81 µM
  TGI: > 100 µM
MDA-MB-231 breast
  GI50: 1.1 µM
  TGI: 79.1 µM
SN12C renal
  GI50: 4.45 µM
  TGI: > 100 µM
NCI/ADR-RES ovarian
  GI50: 0.612 µM
  TGI: > 100 µM
ACHN renal
  GI50: 0.797 µM
  TGI: 31.1 µM
SK-MEL-28 melanoma
  GI50: 1.12 µM
  TGI: 29.8 µM
SK-MEL-2 melanoma
  GI50: 0.596 µM
  TGI: 12.7 µM
COLO 205 colon
  GI50: 1.14 µM
  TGI: 3.53 µM
SR leukemia
  GI50: 0.35 µM
  TGI: 15.6 µM
NCI-H460 lung
  GI50: 0.51 µM
  TGI: 18.4 µM
MOLT-4 leukemia
  GI50: 0.701 µM
  TGI: 43.1 µM
OVCAR-5 ovarian
  GI50: 4.25 µM
  TGI: > 100 µM
MCF7 breast
  GI50: 0.381 µM
  TGI: 21.4 µM
TK-10 renal
  GI50: 5.2 µM
  TGI: 30.1 µM
SNB-19 CNS
  GI50: 11 µM
  TGI: > 100 µM
NCI-H23 lung
  GI50: 4.29 µM
  TGI: > 100 µM
HT29 colon
  GI50: 0.384 µM
  TGI: 3.44 µM
M14 melanoma
  GI50: 0.612 µM
  TGI: > 100 µM
HCT-15 colon
  GI50: 0.432 µM
  TGI: 27.2 µM
SNB-75 CNS
  GI50: 0.222 µM
  TGI: 1.1 µM
MALME-3M melanoma
  GI50: 0.449 µM
  TGI: 38 µM
SK-OV-3 ovarian
  GI50: 1.17 µM
  TGI: 9.77 µM
DU-145 prostate
  GI50: 1.54 µM
  TGI: 41.9 µM
SW-620 colon
  GI50: 0.39 µM
  TGI: > 100 µM
IGROV1 ovarian
  GI50: 2.23 µM
  TGI: 75.1 µM
CAKI-1 renal
  GI50: 0.724 µM
  TGI: 36.6 µM
A549 NSCLC
  GI50: 0.58 µM
  TGI: 17.1 µM
PC-3 prostate
  GI50: 0.549 µM
  TGI: 25.8 µM
LOX IMVI melanoma
  GI50: 0.987 µM
  TGI: > 100 µM
BT-549 breast
  GI50: 2.75 µM
  TGI: 43.1 µM
SF-268 CNS
  GI50: 4.46 µM
  TGI: > 100 µM
UO-31 renal
  GI50: 2.98 µM
  TGI: > 100 µM
A498 renal
  GI50: 0.56 µM
  TGI: 22.3 µM
786-0 renal
  GI50: 1.71 µM
  TGI: 19.7 µM
HCT-116 colon
  GI50: 0.515 µM
  TGI: 21.3 µM
SF-539 CNS
  GI50: 0.548 µM
  TGI: 5.07 µM
NCI-H522 lung
  GI50: 0.349 µM
  TGI: 6.83 µM
UACC-257 melanoma
  GI50: 10.3 µM
  TGI: 60.1 µM
K-562 leukemia
  GI50: 0.431 µM
  TGI: > 100 µM
KM12 colon
  GI50: 0.722 µM
  TGI: > 100 µM
